Assay results taken from patent US20260274892A1, “MACROCYCLIC BROAD SPECTRUM ANTIBIOTICS” (RQx Pharmaceuticals, Inc., priority 2017, published 2026).
Read-outs that look alike come from different tables or passages of the source.

Legend:
[1] = cc_pd bond, Pd(dppf)Cl2·CH2Cl2, acetonitrile
[2] = system: Methicillin Resistant Staphylococcus aureus strain USA 200; experiment: Minimum inhibitory concentration (MIC), CLSI broth micro-dilution, S. aureus; type: cell-based; details: Staphylococcus aureus, MRSA / USA200; Table 6; MRSA USA 200; cation adjusted Mueller Hinton Broth + 0.002% Tween-80; 35° C., 22 hours
Procedure, shortened: (§1)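 Colonies grown 20 h at 35° C on Trypticase Soy agar (MRSA) or Luria agar (E. coli) were suspended in cation-adjusted Mueller Hinton broth with 0.002% Tween-80. Suspensions were added at OD600 0.0005 to 10-point twofold compound dilutions, then incubated 22 h at 35° C.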

[3] = system: Escherichia coli ATCC 25922; experiment: Minimum inhibitory concentration (MIC), CLSI broth micro-dilution, E. coli; type: cell-based; details: Escherichia coli, ATCC25922, 22 h, Table 6, cation adjusted Mueller Hinton Broth + 0.002% Tween-80, 35° C.
Procedure, shortened: as §1

Structure (SMILES) | MIC [2] [µM] | MIC [3] [µM] | ring closure, yield of all isomers ([1]; from COC(=O)[C@H](Cc1cc(F)c(OCc2ccccc2)c(B2OC(C)(C)C(C)(C)O2)c1)NC(=O)[C@H](C)NC(=O)[C@H](c1ccc(OCCNC(=O)OC(C)(C)C)c(I)c1)N(C)C(=O)OCc1ccccc1, 20.06 mM, 70.0 °C, 1.5 h) [%] | ring closure, yield of all isomers ([1]; from COC(=O)[C@H](Cc1cc(O)c(OC)c(B2OC(C)(C)C(C)(C)O2)c1)NC(=O)[C@H](C)NC(=O)[C@H](c1ccc(OC)c(I)c1)N(C)C(=O)OC(C)(C)C, 65.0 °C, 2.0 h) [%]
COC(=O)[C@@H]1Cc2cc(F)c(OCc3ccccc3)c(c2)-c2cc(ccc2OCCNC(=O)OC(C)(C)C)[C@H](N(C)C(=O)OCc2ccccc2)C(=O)N[C@@H](C)C(=O)N1 | – | – | 31 | –
COC(=O)[C@@H]1Cc2cc(O)c(OC)c(c2)-c2cc(ccc2OC)[C@H](N(C)C(=O)OC(C)(C)C)C(=O)N[C@@H](C)C(=O)N1 | – | – | – | 17.1
Cc1nc(-c2ccc(OC3CCCCC3)cc2)nc(C)c1C(=O)N[C@@H](CNC(N)=O)C(=O)N(C)[C@@H]1C(=O)N[C@@H](C)C(=O)N[C@H](C(=O)NCC#N)Cc2ccc(OCCN)c(c2)-c2cc1ccc2OCCN [Compound 499, (8S,11S,14S)-3,18-bis(2-aminoethoxy)-N-(cyanomethyl)-14-[[(2S)-2-[[2-[4-(cyclohexoxy)phenyl]-4,6-dimethyl-pyrimidine-5-carbonyl]amino]-3-ureido-propanoyl]-methyl-amino]-11-methyl-10,13-dioxo-9,12-diazatricyclo[13.3.1.12,6]icosa-1(18),2(20),3,5,15(19),16-hexaene-8-carboxamide] | 0.063 | 1.5 | – | –
Cc1nc(-c2ccc(OC3CCCCC3)cc2)nc(C)c1C(=O)N[C@@H](CCCNC(N)=O)C(=O)N(C)[C@@H]1C(=O)N[C@@H](C)C(=O)N[C@H](C(=O)NCC#N)Cc2ccc(OCCN)c(c2)-c2cc1ccc2OCCN [Compound 501, (8S,11S,14S)-3,18-bis(2-aminoethoxy)-N-(cyanomethyl)-14-[[(2S)-2-[[2-[4-(cyclohexoxy)phenyl]-4,6-dimethyl-pyrimidine-5-carbonyl]amino]-5-ureido-pentanoyl]-methyl-amino]-11-methyl-10,13-dioxo-9,12-diazatricyclo[13.3.1.12,6]icosa-1(18),2(20),3,5,15(19),16-hexaene-8-carboxamide] | 0.063 | 1 | – | –
Cc1nc(-c2ccc(OC3CCCCC3)cc2)nc(C)c1C(=O)N[C@@H](CO)C(=O)N(C)[C@@H]1C(=O)N[C@@H](C)C(=O)N[C@H](C(=O)NCC#N)Cc2ccc(OCCN)c(c2)-c2cc1ccc2OCCN [Compound 507, (8S,11S,14S)-3,18-bis(2-aminoethoxy)-N-(cyanomethyl)-14-[[(2S)-2-[[2-[4-(cyclohexoxy)phenyl]-4,6-dimethyl-pyrimidine-5-carbonyl]amino]-3-hydroxy-propanoyl]-methyl-amino]-11-methyl-10,13-dioxo-9,12-diazatricyclo[13.3.1.12,6]icosa-1(18),2(20),3,5,15(19),16-hexaene-8-carboxamide] | 0.063 | 0.38 | – | –
Cc1nc(-c2ccc(OC3CCCCC3)cc2)nc(C)c1C(=O)N[C@H](CO)C(=O)N(C)[C@@H]1C(=O)N[C@@H](C)C(=O)N[C@H](C(=O)NCC#N)Cc2ccc(OCCN)c(c2)-c2cc1ccc2OCCN [Compound 508, (8S,11S,14S)-3,18-bis(2-aminoethoxy)-N-(cyanomethyl)-14-[[(2R)-2-[[2-[4-(cyclohexoxy)phenyl]-4,6-dimethyl-pyrimidine-5-carbonyl]amino]-3-hydroxy-propanoyl]-methyl-amino]-11-methyl-10,13-dioxo-9,12-diazatricyclo[13.3.1.12,6]icosa-1(18),2(20),3,5,15(19),16-hexaene-8-carboxamide] | 1 | 6 | – | –

The next lines start with results.

MIC [2] [µM] | MIC [3] [µM] | Structure (SMILES) | ring closure, yield of all isomers ([1]; from COC(=O)[C@H](Cc1cc(F)c(OCc2ccccc2)c(B2OC(C)(C)C(C)(C)O2)c1)NC(=O)[C@H](C)NC(=O)[C@H](c1ccc(OCCNC(=O)OC(C)(C)C)c(I)c1)N(C)C(=O)OCc1ccccc1, 20.06 mM, 70.0 °C, 1.5 h) [%] | ring closure, yield of all isomers ([1]; from COC(=O)[C@H](Cc1cc(O)c(OC)c(B2OC(C)(C)C(C)(C)O2)c1)NC(=O)[C@H](C)NC(=O)[C@H](c1ccc(OC)c(I)c1)N(C)C(=O)OC(C)(C)C, 65.0 °C, 2.0 h) [%]
0.031 | 0.48 | Cc1nc(-c2ccc(OC3CCCCC3)cc2)nc(C)c1C(=O)N[C@@H](CCNS(N)(=O)=O)C(=O)N(C)[C@@H]1C(=O)N[C@@H](C)C(=O)N[C@H](C(=O)NCC#N)Cc2ccc(OCCN)c(c2)-c2cc1ccc2OCCN [Compound 500, (8S,11S,14S)-3,18-bis(2-aminoethoxy)-N-(cyanomethyl)-14-[[(2S)-2-[[2-[4-(cyclohexoxy)phenyl]-4,6-dimethyl-pyrimidine-5-carbonyl]amino]-4-(sulfamoylamino)butanoyl]-methyl-amino]-11-methyl-10,13-dioxo-9,12-diazatricyclo[13.3.1.12,6]icosa-1(18),2(20),3,5,15(19),16-hexaene-8-carboxamide] | – | –
0.047 | 1 | Cc1nc(-c2ccc(OC3CCCCC3)cc2)nc(C)c1C(=O)N[C@@H](CCCNS(N)(=O)=O)C(=O)N(C)[C@@H]1C(=O)N[C@@H](C)C(=O)N[C@H](C(=O)NCC#N)Cc2ccc(OCCN)c(c2)-c2cc1ccc2OCCN [Compound 503, (8S,11S,14S)-3,18-bis(2-aminoethoxy)-N-(cyanomethyl)-14-[[(2S)-2-[[2-[4-(cyclohexoxy)phenyl]-4,6-dimethyl-pyrimidine-5-carbonyl]amino]-5-(sulfamoylamino)pentanoyl]-methyl-amino]-11-methyl-10,13-dioxo-9,12-diazatricyclo[13.3.1.12,6]icosa-1(18),2(20),3,5,15(19),16-hexaene-8-carboxamide] | – | –
0.047 | 0.5 | Cc1nc(-c2ccc(OC3CCCCC3)cc2)nc(C)c1C(=O)N[C@@H](CCO)C(=O)N(C)[C@@H]1C(=O)N[C@@H](C)C(=O)N[C@H](C(=O)NCC#N)Cc2ccc(OCCN)c(c2)-c2cc1ccc2OCCN [Compound 509, (8S,11S,14S)-3,18-bis(2-aminoethoxy)-N-(cyanomethyl)-14-[[(2S)-2-[[2-[4-(cyclohexoxy)phenyl]-4,6-dimethyl-pyrimidine-5-carbonyl]amino]-4-hydroxy-butanoyl]-methyl-amino]-11-methyl-10,13-dioxo-9,12-diazatricyclo[13.3.1.12,6]icosa-1(18),2(20),3,5,15(19),16-hexaene-8-carboxamide] | – | –
